Test results published in patent EP2997966A1, “Naphthyl Sulfonamide Pyrrolidine Derivatives as KEAP-1 Modulators for the Treatment of Diabetes, Obesity, Dyslipidemia and Related Disorders” (SANOFI, priority 2014, dated 2016).
Read-outs that look alike come from different tables or passages of the source.

Biological target: T1, human Keap1 kelch domain (amino acids Ala321-Thr609) (Homo sapiens, UniProt Q14145)
T1 construct: human Keap1 kelch domain (amino acids Ala321-Thr609)
Experiment: Keap1-Nrf2 peptide binding assay (fluorescence polarisation)
Conditions: binding to fluorescently labeled human Nrf2 peptide, 20 nM Keap1 kelch domain, 50 nM peptide
Procedure: Keap1-Nrf2 peptide binding assay
Two microliters of test compound in reaction buffer (phosphate-buffered saline, 2 mM DL-dithiothreitol, 0.015 % (v/v) Brij-35) containing 6 % (v/v) DMSO were mixed with two microliters of the Keap1 kelch domain in reaction buffer in a black 384-well small volume microtiter plate and incubated at ambient temperature for 15 minutes. Thereafter, two microliters were added of the fluorescently labeled Nrf2 peptide in reaction buffer, and the mixture was incubated for a further 30 minutes at ambient temperature. Final concentrations of the Keap1 kelch domain and the fluorescently labeled Nrf2 peptide were 20 nM and 50 nM, respectively.
Fluorescence polarization (FP) was measured at excitation and emission wavelengths of 635 nm and 660 nm, respectively. Positive controls for binding (two microliters of reaction buffer containing 6 % (v/v) DMSO instead of test compound in the same buffer) and negative controls (as positive controls, but without Keap1 kelch domain) were included on each microtiter plate.

T1 sequence (Q14145 321-609): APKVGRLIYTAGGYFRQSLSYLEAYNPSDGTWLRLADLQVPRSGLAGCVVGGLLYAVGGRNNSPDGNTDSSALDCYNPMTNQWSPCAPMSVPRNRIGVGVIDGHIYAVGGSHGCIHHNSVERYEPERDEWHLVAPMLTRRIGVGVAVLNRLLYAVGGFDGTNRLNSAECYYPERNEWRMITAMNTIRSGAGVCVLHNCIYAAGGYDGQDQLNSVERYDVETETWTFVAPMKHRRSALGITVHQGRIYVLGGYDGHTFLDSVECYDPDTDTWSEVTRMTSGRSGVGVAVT

SMILES: Cc1cc(C)c(C)c(S(=O)(=O)Nc2ccc(N3CCC(C)(C(=O)O)C3)c3ccccc23)c1C (stereo not shown) [Example 9, 3-methyl-1-[4-[(2,3,5,6-tetramethylphenyl)sulfonylamino]-1-naphthyl]pyrrolidine-3-carboxylic acid]
- IC50 (read-out: IC50): 800 nM

SMILES: O=C(O)[C@@H]1CCN(c2ccc(NS(=O)(=O)c3cccc(Cl)c3Cl)c3ccccc23)C1 [Example 35, (3R)-1-[4-[(2,3-dichlorophenyl)sulfonylamino]-1-naphthyl]pyrrolidine-3-carboxylic acid]
- IC50 (read-out: IC50): 1800 nM

SMILES: Cc1cc(C)c(C)c(S(=O)(=O)Nc2ccc(C3=CCC(C(=O)O)CC3)c3ccccc23)c1C (stereo not shown) [Example 57, 4-[4-[(2,3,5,6-tetramethylphenyl)sulfonylamino]-1-naphthyl]cyclohex-3-ene-1-carboxylic acid]
- IC50 (read-out: IC50): 600 nM

SMILES: Cc1c(S(=O)(=O)Nc2ccc(N3CC[C@@H](C(=O)O)C3)c3ccccc23)c2ccccc2n1C [Example 63, (3R)-1-[4-[(1,2-dimethylindol-3-yl)sulfonylamino]-1-naphthyl]pyrrolidine-3-carboxylic acid]
- IC50 (read-out: IC50): 260 nM

SMILES: COc1ccc(F)c(S(=O)(=O)Nc2ccc(N3CC[C@@H](C(=O)O)C3)c3ccccc23)c1 [Example 44, (3R)-1-[4-[(2-fluoro-5-methoxyphenyl)sulfonylamino]-1-naphthyl]pyrrolidine-3-carboxylic acid]
- IC50 (read-out: IC50): 2500 nM

SMILES: Cc1c(S(=O)(=O)Nc2ccc(N3CC[C@H](C(=O)O)C3)c3ccccc23)cnn1C1CCCC1 [Example 30, (3S)-1-[4-[(1-cyclopentyl-5-methyl-pyrazol-4-yl)sulfonylamino]-1-naphthyl]pyrrolidine-3-carboxylic acid]
- IC50 (read-out: IC50): 4100 nM

SMILES: Cc1nn(C)c(C)c1S(=O)(=O)Nc1ccc(N2CC[C@H](C(=O)O)C2)c2ccccc12 [Example 22, (3S)-1-[4-[(1,3,5-trimethylpyrazol-4-yl)sulfonylamino]-1-naphthyl]pyrrolidine-3-carboxylic acid]
- IC50: 4500 nM

SMILES: CCCCn1cc(S(=O)(=O)Nc2ccc(N3CC[C@@H](C(=O)O)C3)c3ccccc23)c(C)n1 [Example 13, (3R)-1-[4-[(1-butyl-3-methyl-pyrazol-4-yl)sulfonylamino]-1-naphthyl]pyrrolidine-3-carboxylic acid]
- IC50 (read-out: IC50): 2300 nM

SMILES: CC(=O)Nc1nc(C)c(S(=O)(=O)Nc2ccc(N3CC[C@@H](C(=O)O)C3)c3ccccc23)s1 [Example 31, (3R)-1-[4-[(2-acetamido-4-methyl-thiazol-5-yl)sulfonylamino]-1-naphthyl]pyrrolidine-3-carboxylic acid]
- IC50 (read-out: IC50): 1900 nM

SMILES: Cc1c(S(=O)(=O)Nc2ccc(N3CC[C@@H](C(=O)O)C3)c3ccccc23)cnn1-c1ccccc1 [Example 39, (3R)-1-[4-[(5-methyl-1-phenyl-pyrazol-4-yl)sulfonylamino]-1-naphthyl]pyrrolidine-3-carboxylic acid]
- IC50 (read-out: IC50): 6500 nM

SMILES: Cc1nc(C)c(S(=O)(=O)Nc2ccc(N3CC[C@@H](C(=O)O)C3)c3ccccc23)s1 [Example 41, (3R)-1-[4-[(2,4-dimethylthiazol-5-yl)sulfonylamino]-1-naphthyl]pyrrolidine-3-carboxylic acid]
- IC50: 1600 nM

SMILES: O=C(O)[C@@H]1CCN(c2ccc(NS(=O)(=O)c3cc(F)cc(F)c3Cl)c3ccccc23)C1 [Example 46, (3R)-1-[4-[(2-chloro-3,5-difluorophenyl)sulfonylamino]-1-naphthyl]pyrrolidine-3-carboxylic acid]
- IC50: 7400 nM

SMILES: Cc1c(S(=O)(=O)Nc2ccc(N3CC[C@@H](C(=O)O)C3)c3ccccc23)cnn1C1CCCC1 [Example 50, (3R)-1-[4-[(1-cyclopentyl-5-methyl-pyrazol-4-yl)sulfonylamino]-1-naphthyl]pyrrolidine-3-carboxylic acid]
- IC50 (read-out: IC50): 2800 nM

SMILES: O=C(O)[C@H]1CCN(c2ccc(NS(=O)(=O)c3cc(Cl)ccc3Cl)c3ccccc23)C1 [Example 28, (3S)-1-[4-[(2,5-dichlorophenyl)sulfonylamino]-1-naphthyl]pyrrolidine-3-carboxylic acid]
- IC50: 5800 nM

SMILES: Cc1c(S(=O)(=O)Nc2ccc(N3CC[C@H](C(=O)O)C3)c3ccccc23)cnn1CC(C)C [Example 29, (3S)-1-[4-[(1-isobutyl-5-methyl-pyrazol-4-yl)sulfonylamino]-1-naphthyl]pyrrolidine-3-carboxylic acid]
- IC50 (read-out: IC50): 7000 nM

SMILES: Cc1c(S(=O)(=O)Nc2ccc(N3CC[C@@H](C(=O)O)C3)c3ncccc23)sc2cccc(F)c12 [Example 70, (3R)-1-[5-[(4-fluoro-3-methyl-benzothiophen-2-yl)sulfonylamino]-8-quinolyl]pyrrolidine-3-carboxylic acid]
- IC50 (read-out: IC50): 300 nM

SMILES: Cc1cc(C)c(C)c(S(=O)(=O)Nc2ccc(N3CCC[C@@H](C(=O)O)C3)c3ccccc23)c1C [Example 58, (3R)-1-[4-[(2,3,5,6-tetramethylphenyl)sulfonylamino]-1-naphthyl]piperidine-3-carboxylic acid]
- IC50 (read-out: IC50): 270 nM

SMILES: Cc1nn(-c2ccccc2)c(C)c1S(=O)(=O)Nc1ccc(N2CC[C@H](C(=O)O)C2)c2ccccc12 [Example 25, (3S)-1-[4-[(3,5-dimethyl-1-phenyl-pyrazol-4-yl)sulfonylamino]-1-naphthyl]pyrrolidine-3-carboxylic acid]
- IC50: 4100 nM

SMILES: CCCCn1cc(S(=O)(=O)Nc2ccc(N3CC[C@H](C(=O)O)C3)c3ccccc23)c(C)n1 [Example 11, (3S)-1-[4-[(1-butyl-3-methyl-pyrazol-4-yl)sulfonylamino]-1-naphthyl]pyrrolidine-3-carboxylic acid]
- IC50 (read-out: IC50): 5000 nM

SMILES: O=C(O)[C@H]1CCN(c2ccc(NS(=O)(=O)c3ccc(Cl)cc3Cl)c3ccccc23)C1 [Example 19, (3S)-1-[4-[(2,4-dichlorophenyl)sulfonylamino]-1-naphthyl]pyrrolidine-3-carboxylic acid]
- IC50 (read-out: IC50): 6200 nM

SMILES: CCCn1ncc(S(=O)(=O)Nc2ccc(N3CC[C@@H](C(=O)O)C3)c3ccccc23)c1C [Example 54, (3R)-1-[4-[(5-methyl-1-propyl-pyrazol-4-yl)sulfonylamino]-1-naphthyl]pyrrolidine-3-carboxylic acid]
- IC50: 1800 nM

SMILES: COc1ccc(S(=O)(=O)Nc2ccc(N3CC[C@@H](C(=O)O)C3)c3ccccc23)c(OC)c1 [Example 47, (3R)-1-[4-[(2,4-dimethoxyphenyl)sulfonylamino]-1-naphthyl]pyrrolidine-3-carboxylic acid]
- IC50: 6100 nM
